pIC50: −log10 of the molar value.

The source of these data is patent publication US20240116985A1, “STAPLED PEPTIDES AND METHODS THEREOF” (priority 2020, published 2024).

The target of the assay is T1, full-length beta-Catenin (Uniprot ID P35222) (Homo sapiens, UniProt P35222).
T1 construct: 10 nM full-length beta-Catenin (Uniprot ID P35222)
T1 sequence (P35222 1-781): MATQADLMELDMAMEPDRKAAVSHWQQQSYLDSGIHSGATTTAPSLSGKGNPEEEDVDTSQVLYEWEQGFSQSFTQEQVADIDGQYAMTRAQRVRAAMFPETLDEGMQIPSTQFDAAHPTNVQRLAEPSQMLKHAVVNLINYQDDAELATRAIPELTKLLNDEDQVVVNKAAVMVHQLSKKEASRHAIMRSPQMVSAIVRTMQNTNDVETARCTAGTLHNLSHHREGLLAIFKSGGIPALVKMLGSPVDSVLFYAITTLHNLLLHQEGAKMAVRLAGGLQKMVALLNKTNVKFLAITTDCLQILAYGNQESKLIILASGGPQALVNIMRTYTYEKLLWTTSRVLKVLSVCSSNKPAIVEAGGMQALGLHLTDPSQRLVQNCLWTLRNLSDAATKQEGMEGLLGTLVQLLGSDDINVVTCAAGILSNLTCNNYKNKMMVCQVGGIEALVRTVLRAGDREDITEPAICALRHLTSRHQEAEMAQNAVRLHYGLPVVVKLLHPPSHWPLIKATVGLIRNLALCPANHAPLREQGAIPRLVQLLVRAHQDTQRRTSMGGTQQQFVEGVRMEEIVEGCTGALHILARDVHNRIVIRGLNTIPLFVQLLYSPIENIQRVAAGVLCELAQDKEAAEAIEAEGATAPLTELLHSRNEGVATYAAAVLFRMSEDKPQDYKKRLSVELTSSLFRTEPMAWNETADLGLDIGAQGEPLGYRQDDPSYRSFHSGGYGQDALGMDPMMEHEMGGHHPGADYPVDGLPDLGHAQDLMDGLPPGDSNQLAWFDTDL
Put plainly: Fluorescence polarization IC50 (beta-catenin / 5FAM-TCF4 10-53 competition). The format is binding. Particulars: fluorescence polarization; read-out: beta-Catenin FP IC50.

Usually pIC50 stands for the negative decadic logarithm of the IC50, by convention in mol/L. `CC(=O)N1CCC[C@]12CC=CCCCC1(CCCC=CCCCOC(=O)N3CC[C@@](C(=O)N[C@@H](Cc4ccccc4)C(=O)N[C@@H](Cc4csc5ccccc45)C(=O)N[C@@H](CC(=O)N4CCOCC4)C(N)=O)(C3)NC(=O)[C@H](CC(C)C)NC(=O)[C@H](Cc3ccccc3)NC(=O)[C@H](C)NC(=O)[C@H](CCCCNC(=O)CCN(C)C)NC(=O)[C@H](CCC(N)=O)NC(=O)[C@H](CC(=O)O)NC1=O)NC(=O)[C@H](CC1CCCCC1)NC(=O)[C@H](CC(N)=O)NC2=O` (stereo partly drawn) [I-2528, Ac-PL3-Asn-Cha-B5-Asp-Gln-[Me2Npr]Lys-Ala-Phe-Leu-PyrS2-Phe-BztA-MorphAsn-NH2]: the pIC50 was 6.21. For `CC(C)C[C@@H]1NC(=O)[C@H](Cc2ccccc2)NC(=O)[C@H](C)NC(=O)[C@H](C)NC(=O)[C@H](Cc2cccc(C(=O)O)c2)NC(=O)[C@H](CC(=O)O)NC(=O)C2(CCCCCCCCOC(=O)N3CC[C@@](C(=O)N[C@@H](Cc4ccccc4C(F)(F)F)C(=O)N[C@@H](Cc4csc5ccccc45)C(=O)N[C@@H](CCC(N)=O)C(N)=O)(C3)NC1=O)CCCCCC[C@@]13CCCN1C(=O)CCCCCC[C@H](NC(=O)[C@H](CC(=O)O)NC3=O)C(=O)N2` (stereo partly drawn) [I-2529, 5hexenyl-PL3-Asp-AllylGly-B5-Asp-3COOHF-Ala-Ala-Phe-Leu-PyrS2-2F3MeF-BztA-Gln-NH2] the value was 6.82; for `CC(C)C[C@@H]1NC(=O)[C@H](Cc2ccccc2)NC(=O)[C@H](C)NC(=O)[C@H](C)NC(=O)[C@H](Cc2cccc(C(=O)O)c2)NC(=O)[C@H](CC(=O)O)NC(=O)C2(CCCCCCCCOC(=O)N3CC[C@@](C(=O)N[C@@H](Cc4ccccc4C(F)(F)F)C(=O)N[C@@H](Cc4csc5ccccc45)C(=O)N[C@@H](CCC(N)=O)C(N)=O)(C3)NC1=O)CCCCCC[C@@]13CCCN1C(=O)CCCCC[C@H](NC(=O)[C@H](CC(=O)O)NC3=O)C(=O)N2` (stereo partly drawn) [I-2530, 4pentenyl-PL3-Asp-AllylGly-B5-Asp-3COOHF-Ala-Ala-Phe-Leu-PyrS2-2F3MeF-BztA-Gln-NH2], 6.99; for `CCCC[C@@H]1NC(=O)[C@H](CC(=O)O)NC(=O)[C@]2(CCCCCCC3(CCCCCCCCOC(=O)N4CC[C@@](C(=O)N[C@@H](Cc5ccccc5C(F)(F)F)C(=O)N[C@@H](Cc5csc6ccccc56)C(=O)N[C@@H](CCC(N)=O)C(N)=O)(C4)NC(=O)[C@H](CC(C)C)NC(=O)[C@H](Cc4ccccc4)NC(=O)[C@H](C)NC(=O)[C@H](C)NC(=O)[C@H](Cc4cccc(C(=O)O)c4)NC(=O)[C@H](CC(=O)O)NC3=O)NC1=O)CCCN2C(C)=O` (stereo partly drawn) [I-2531, Ac-PL3-Asp-nLeu-B5-Asp-3COOHF-Ala-Ala-Phe-Leu-PyrS2-2F3MeF-BztA-Gln-NH2], 6.75. With `CC(=O)N1Cc2cccc(c2)OCC=CCCCC2(CCCC=CCCCOC(=O)N3CC[C@@](C(=O)N[C@@H](Cc4ccsc4)C(=O)N[C@@H](Cc4csc5ccccc45)C(=O)N[C@@H](CCC(N)=O)C(N)=O)(C3)NC(=O)[C@H](CC(C)C)NC(=O)[C@H](Cc3ccccc3)NC(=O)[C@H](C)NC(=O)[C@H](C)NC(=O)[C@H](CN(CC(=O)O)CC(F)(F)F)NC(=O)[C@H](CC(=O)O)NC2=O)NC(=O)[C@H](CC(C)(C)C)NC(=O)[C@@H]1CC(=O)O` (stereo partly drawn) [I-2550, Bn3OAllyl-AcAsp-Npg-B5-Asp-TfeGA-Ala-Ala-Phe-Leu-PyrS2-3Thi-BztA-Gln-NH2], the pIC50 is 5.76. Take `CCCC[C@@H]1NC(=O)[C@H](Cc2ccccc2)NC(=O)[C@H](C)NC(=O)C(C)(C)NC(=O)[C@H](Cc2cccc(C(=O)O)c2)NC(=O)[C@H](CC(=O)O)NC(=O)C2(CCCC=CCCCOC(=O)N3CC[C@@](C(=O)N[C@@H](Cc4ccsc4)C(=O)N[C@@H](Cc4csc5ccccc45)C(=O)N[C@@H](CCC(=O)N4CCC(N5CCCCC5)CC4)C(N)=O)(C3)NC1=O)CCCC=CC[C@]1(CCCN1C(C)=O)C(=O)N[C@@H](CC(=O)O)C(=O)N[C@@H](CC(C)(C)C)C(=O)N2` (stereo partly drawn) [I-2555, Ac-PL3-Asp-Npg-B5-Asp-3COOHF-Aib-Ala-Phe-nLeu-PyrS2-3Thi-BztA-[4Pippip]GlnR-NH2]: the pIC50 is 7.96. Turning to `CC(=O)N[C@]1(C)CCCC=CCCCC2(CCCC=CCCCOC(=O)N3CC[C@@](C(=O)N[C@@H](Cc4ccccc4C(F)(F)F)C(=O)N[C@@H](Cc4csc5ccccc45)C(=O)N[C@@H](CCC(N)=O)C(N)=O)(C3)NC(=O)[C@H](CC(C)C)NC(=O)[C@H](Cc3ccccc3)NC(=O)[C@H](C)NC(=O)[C@H](C)NC(=O)[C@H](Cc3cccc(C(=O)O)c3)NC(=O)[C@H](CC(=O)O)NC2=O)NC(=O)[C@H](CC(C)(C)C)NC(=O)[C@H](CC(=O)O)NC1=O` (stereo partly drawn) [I-2564, Ac-R5-Asp-Npg-B5-Asp-3COOHF-Ala-Ala-Phe-Leu-PyrS2-2F3MeF-BztA-Gln-NH2], the pIC50 is 6.59. For `CC(=O)N1CCC[C@H]1C(=O)N[C@]1(C)CC=CCCCC2(CCCC=CCCCOC(=O)N3CC[C@@](C(=O)N[C@@H](Cc4ccccc4C(F)(F)F)C(=O)N[C@@H](Cc4csc5ccccc45)C(=O)N[C@@H](CCC(N)=O)C(N)=O)(C3)NC(=O)[C@H](CC(C)C)NC(=O)[C@H](Cc3ccccc3)NC(=O)[C@H](C)NC(=O)[C@H](C)NC(=O)[C@H](Cc3cccc(C(=O)O)c3)NC(=O)[C@H](CC(=O)O)NC2=O)NC(=O)[C@H](CC(C)(C)C)NC(=O)[C@H](CC(=O)O)NC1=O` (stereo partly drawn) [I-2566, Ac-Pro-R3-Asp-Npg-B5-Asp-3COOHF-Ala-Ala-Phe-Leu-PyrS2-2F3MeF-BztA-Gln-NH2] the value was 6.74; for `CC(=O)N1CCC[C@H]1C(=O)N[C@]1(C)CCCC=CCCCC2(CCCC=CCCCOC(=O)N3CC[C@@](C(=O)N[C@@H](Cc4ccccc4C(F)(F)F)C(=O)N[C@@H](Cc4csc5ccccc45)C(=O)N[C@@H](CCC(N)=O)C(N)=O)(C3)NC(=O)[C@H](CC(C)C)NC(=O)[C@H](Cc3ccccc3)NC(=O)[C@H](C)NC(=O)[C@H](C)NC(=O)[C@H](Cc3cccc(C(=O)O)c3)NC(=O)[C@H](CC(=O)O)NC2=O)NC(=O)[C@H](CC(C)(C)C)NC(=O)[C@H](CC(=O)O)NC1=O` (stereo partly drawn) [I-2567, Ac-Pro-R5-Asp-Npg-B5-Asp-3COOHF-Ala-Ala-Phe-Leu-PyrS2-2F3MeF-BztA-Gln-NH2], 6.28. Take `CC(=O)N[C@]12CCN(C1)C(=O)OCC=CCCCC1(CCCC=CCCCOC(=O)N3CC[C@@](C(=O)N[C@@H](Cc4ccccc4C(F)(F)F)C(=O)N[C@@H](Cc4csc5ccccc45)C(=O)N[C@@H](CCC(N)=O)C(N)=O)(C3)NC(=O)[C@H](CC(C)C)NC(=O)[C@H](Cc3ccccc3)NC(=O)[C@H](C)NC(=O)[C@H](C)NC(=O)[C@H](Cc3cccc(C(=O)O)c3)NC(=O)[C@H](CC(=O)O)NC1=O)NC(=O)[C@H](CC(C)(C)C)NC(=O)[C@H](CC(=O)O)NC(=O)[C@H](C)NC2=O` (stereo partly drawn) [I-2568, Ac-PyrR-Ala-Asp-Npg-B5-Asp-3COOHF-Ala-Ala-Phe-Leu-PyrS2-2F3MeF-BztA-Gln-NH2]: the pIC50 was 5.32. On to `CC(=O)N[C@]12CCN(C1)C(=O)OCC=CCCCC1(CCCC=CCCCOC(=O)N3CC[C@@](C(=O)N[C@@H](Cc4ccccc4C(F)(F)F)C(=O)N[C@@H](Cc4csc5ccccc45)C(=O)N[C@@H](CCC(N)=O)C(N)=O)(C3)NC(=O)[C@H](CC(C)C)NC(=O)[C@H](Cc3ccccc3)NC(=O)[C@H](C)NC(=O)[C@H](C)NC(=O)[C@H](Cc3cccc(C(=O)O)c3)NC(=O)[C@H](CC(=O)O)NC1=O)NC(=O)[C@H](CC(C)(C)C)NC(=O)[C@H](CC(=O)O)NC(=O)[C@H](CCC(=O)O)NC2=O` (stereo partly drawn) [I-2569, Ac-PyrR-Glu-Asp-Npg-B5-Asp-3COOHF-Ala-Ala-Phe-Leu-PyrS2-2F3MeF-BztA-Gln-NH2], for which the pIC50 is 5.71.

Consider `CC(=O)N[C@]1(C)CCCCCCC2(CCCCCCCCOC(=O)N3CC[C@@](C(=O)N[C@@H](Cc4ccccc4C(F)(F)F)C(=O)N[C@@H](Cc4csc5ccccc45)C(=O)N[C@@H](CCC(N)=O)C(N)=O)(C3)NC(=O)[C@H](CC(C)C)NC(=O)[C@H](Cc3ccccc3)NC(=O)[C@H](C)NC(=O)[C@H](C)NC(=O)[C@H](Cc3cccc(C(=O)O)c3)NC(=O)[C@H](CC(=O)O)NC2=O)NC(=O)[C@H](CC(C)(C)C)NC(=O)[C@H](CC(=O)O)NC1=O` (stereo partly drawn) [I-2570, Ac-R3-Asp-Npg-B5-Asp-3COOHF-Ala-Ala-Phe-Leu-PyrS2-2F3MeF-BztA-Gln-NH2], for which the pIC50 was 5.89. With `CC(=O)N1CCC[C@H]1C(=O)N[C@]1(C)CCCCCCCCC2(CCCCCCCCOC(=O)N3CC[C@@](C(=O)N[C@@H](Cc4ccccc4C(F)(F)F)C(=O)N[C@@H](Cc4csc5ccccc45)C(=O)N[C@@H](CCC(N)=O)C(N)=O)(C3)NC(=O)[C@H](CC(C)C)NC(=O)[C@H](Cc3ccccc3)NC(=O)[C@H](C)NC(=O)[C@H](C)NC(=O)[C@H](Cc3cccc(C(=O)O)c3)NC(=O)[C@H](CC(=O)O)NC2=O)NC(=O)[C@H](CC(C)(C)C)NC(=O)[C@H](CC(=O)O)NC1=O` (stereo partly drawn) [I-2573, Ac-Pro-R5-Asp-Npg-B5-Asp-3COOHF-Ala-Ala-Phe-Leu-PyrS2-2F3MeF-BztA-Gln-NH2], the pIC50 was 6.63.
